Test results published in PMC12281424, “A Rac-specific competitive inhibitor of guanine nucleotide binding reduces metastasis in triple-negative breast cancer” (Cell Reports Medicine, 2025).

Columns and labels:
CaMKIδ(h) = CaMKIδ(h) (Homo sapiens, UniProt Q8IU85); test: Kinase Profiler; type: biochemical
Experimental: (§1) The kinase profiler was performed by the company Eurofins (Discovery, Panlab and Cerep).

[1] = tested on: GABAA, Ro-15-1788, Hippocampus; test: Safety screen; type: binding, rat
Experimental: (§2) Blood cell counts, kinase profiler, safety screen, bacterial cytotoxicity, Ames, micronucleus assays were performed by the company Eurofins (France).

CDK14/cyclinY(h) = CDK14/cyclinY(h) (Homo sapiens, UniProt O94921); test: Kinase Profiler; type: biochemical
Experimental: (§3) Blood cell counts, kinase profiler, safety screen, bacterial cytotoxicity, Ames, micronucleus assays were performed by the company Eurofins (France). The kinase profiler was performed by the company Eurofins (Discovery, Panlab and Cerep).

[2] = tested on: Protein Ser/Thr Kinase, PKC, Non- Selective; test: Safety screen; type: biochemical, rat
Experimental: as §1

CHO = test: Micronucleus assay (HCA); type: cell-based
Excerpt: Data S4. Micronucleus assay-A41.
Test Scored % Cytotox % Cytotox % Micronucleated t-Test Test
Concentr. Cells Index CBPI NumbersCell Cells p-value Result […]
Micronucleus (CHO - S9, HCA)

HIPK4(h) = HIPK4(h) (Homo sapiens, UniProt Q8NE63); test: Kinase Profiler; type: biochemical
Experimental: as §1

PrKX(h) = PrKX(h) (Homo sapiens, UniProt P51817); test: Kinase Profiler; type: biochemical
Experimental: as §1

MYO3B(h) = MYO3B(h) (Homo sapiens, UniProt Q8WXR4); test: Kinase Profiler; type: biochemical
Experimental: as §1

[3] = tested on: Calcium Channel L-Type, Dihydropyridine; test: Safety screen; type: binding, rat
VRK1(h) = VRK1(h) (Homo sapiens, UniProt Q99986); test: Kinase Profiler; type: biochemical
Experimental: as §1

TAK1(h) = TAK1(h) (Homo sapiens, UniProt O43318); test: Kinase Profiler; type: biochemical
Experimental: as §3

CaMKIIγ(h) = CaMKIIγ(h) (Homo sapiens, UniProt Q13555); test: Kinase Profiler; type: biochemical
Experimental: as §1

ALK(h) = ALK(h) (Homo sapiens, UniProt Q9UM73); test: Kinase Profiler; type: biochemical
Experimental: as §1

MEKK3(h) = MEKK3(h) (Homo sapiens, UniProt Q99759); test: Kinase Profiler; type: biochemical
Experimental: as §1

ZAP-70(h) = ZAP-70(h) (Homo sapiens, UniProt P43403); test: Kinase Profiler; type: biochemical
Experimental: as §1

CDK7/cyclinH/MAT1(h) = CDK7/cyclinH/MAT1(h) (Homo sapiens, UniProt P50613); test: Kinase Profiler; type: biochemical
Experimental: as §3

Cannabinoid CB2 = Cannabinoid CB2 (Homo sapiens, UniProt P34972); test: Safety screen; type: binding
Experimental: as §2

[4] = biological target: PI3K (p110a(E542K)/p85a)(h) (Homo sapiens, UniProt P42336, E542K); test: Kinase Profiler; type: biochemical
Experimental: as §1

PKBβ(h) = PKBβ(h) (Homo sapiens, UniProt P31751); test: Kinase Profiler; type: biochemical
Experimental: as §1

Androgen (Testosterone) = Androgen (Testosterone) (Homo sapiens, UniProt P10275); test: Safety screen; type: binding
Experimental: as §3

Fes(h) = Fes(h) (Homo sapiens, UniProt P07332); test: Kinase Profiler; type: biochemical
Experimental: as §1

Tie2(R849W)(h) = Tie2(R849W)(h) (Homo sapiens, UniProt Q02763, R849W); test: Kinase Profiler; type: biochemical
Experimental: as §3

Muscarinic M4 = Muscarinic M4 (Homo sapiens, UniProt P08173); test: Safety screen; type: binding
Experimental: as §2

TGFBR2(h) = TGFBR2(h) (Homo sapiens, UniProt P37173); test: Kinase Profiler; type: biochemical
Experimental: as §3

MAPKAP-K2(h) = MAPKAP-K2(h) (Homo sapiens, UniProt P49137); test: Kinase Profiler; type: biochemical
Experimental: as §1

Adrenergic β2 = Adrenergic β2 (Homo sapiens, UniProt P07550); test: Safety screen; type: binding
Experimental: as §3

Src(T341M)(h) = Src(T341M)(h) (Homo sapiens, UniProt P12931, T341M); test: Kinase Profiler; type: biochemical
Experimental: as §1

MRCKγ(h) = MRCKγ(h) (Homo sapiens, UniProt Q6DT37); test: Kinase Profiler; type: biochemical
Experimental: as §1

Lck(h) = Lck(h) (Homo sapiens, UniProt P06239); test: Kinase Profiler; type: biochemical
Experimental: as §1

[5] = tested on: Calcium Channel L-Type, Phenylalkylamine; test: Safety screen; type: binding, rat
Glutamate, NMDA, Glycine = test: Safety screen; type: binding, rat
Experimental: as §3

GRK5(h) = GRK5(h) (Homo sapiens, UniProt P34947); test: Kinase Profiler; type: biochemical
Experimental: as §3

CK1ε(h) = CK1ε(h) (Homo sapiens, UniProt P49674); test: Kinase Profiler; type: biochemical
Chain of CK1ε(h) (P49674 whole entry): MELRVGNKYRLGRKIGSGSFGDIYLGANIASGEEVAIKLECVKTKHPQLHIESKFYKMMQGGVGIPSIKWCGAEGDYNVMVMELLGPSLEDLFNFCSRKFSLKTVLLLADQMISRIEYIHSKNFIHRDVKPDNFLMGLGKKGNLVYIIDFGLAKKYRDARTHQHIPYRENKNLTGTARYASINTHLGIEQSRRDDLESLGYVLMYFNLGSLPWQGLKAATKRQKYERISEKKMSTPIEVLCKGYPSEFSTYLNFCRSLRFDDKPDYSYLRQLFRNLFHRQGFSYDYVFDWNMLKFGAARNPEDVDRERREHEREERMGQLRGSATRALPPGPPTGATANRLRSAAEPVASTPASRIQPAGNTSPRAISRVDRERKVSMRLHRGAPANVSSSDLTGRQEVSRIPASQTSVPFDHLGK
Experimental: as §3

Chain of CaMKIδ(h) (Q8IU85 whole entry): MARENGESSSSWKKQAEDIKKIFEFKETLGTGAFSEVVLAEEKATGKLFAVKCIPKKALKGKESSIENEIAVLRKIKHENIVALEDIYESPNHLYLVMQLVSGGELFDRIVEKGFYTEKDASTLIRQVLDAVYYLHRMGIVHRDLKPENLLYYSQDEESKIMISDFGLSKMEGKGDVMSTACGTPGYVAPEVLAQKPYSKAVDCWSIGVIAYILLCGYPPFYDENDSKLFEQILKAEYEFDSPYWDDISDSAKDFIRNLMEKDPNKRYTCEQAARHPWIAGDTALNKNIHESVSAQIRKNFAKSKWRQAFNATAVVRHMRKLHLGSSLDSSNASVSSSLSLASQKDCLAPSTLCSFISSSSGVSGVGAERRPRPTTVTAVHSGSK
Chain of VRK1(h) (Q99986 whole entry): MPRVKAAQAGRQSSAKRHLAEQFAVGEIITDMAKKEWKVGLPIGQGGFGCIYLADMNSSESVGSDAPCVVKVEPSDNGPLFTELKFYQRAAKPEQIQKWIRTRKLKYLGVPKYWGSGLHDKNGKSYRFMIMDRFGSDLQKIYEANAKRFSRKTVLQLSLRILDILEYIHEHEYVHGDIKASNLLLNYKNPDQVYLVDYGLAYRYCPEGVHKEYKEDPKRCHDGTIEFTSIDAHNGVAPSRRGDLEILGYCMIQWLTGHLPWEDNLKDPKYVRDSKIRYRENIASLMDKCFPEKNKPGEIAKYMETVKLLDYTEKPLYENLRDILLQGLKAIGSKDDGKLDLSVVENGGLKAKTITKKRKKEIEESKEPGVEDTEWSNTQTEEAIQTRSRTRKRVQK
Chain of Androgen (Testosterone) (P10275 whole entry): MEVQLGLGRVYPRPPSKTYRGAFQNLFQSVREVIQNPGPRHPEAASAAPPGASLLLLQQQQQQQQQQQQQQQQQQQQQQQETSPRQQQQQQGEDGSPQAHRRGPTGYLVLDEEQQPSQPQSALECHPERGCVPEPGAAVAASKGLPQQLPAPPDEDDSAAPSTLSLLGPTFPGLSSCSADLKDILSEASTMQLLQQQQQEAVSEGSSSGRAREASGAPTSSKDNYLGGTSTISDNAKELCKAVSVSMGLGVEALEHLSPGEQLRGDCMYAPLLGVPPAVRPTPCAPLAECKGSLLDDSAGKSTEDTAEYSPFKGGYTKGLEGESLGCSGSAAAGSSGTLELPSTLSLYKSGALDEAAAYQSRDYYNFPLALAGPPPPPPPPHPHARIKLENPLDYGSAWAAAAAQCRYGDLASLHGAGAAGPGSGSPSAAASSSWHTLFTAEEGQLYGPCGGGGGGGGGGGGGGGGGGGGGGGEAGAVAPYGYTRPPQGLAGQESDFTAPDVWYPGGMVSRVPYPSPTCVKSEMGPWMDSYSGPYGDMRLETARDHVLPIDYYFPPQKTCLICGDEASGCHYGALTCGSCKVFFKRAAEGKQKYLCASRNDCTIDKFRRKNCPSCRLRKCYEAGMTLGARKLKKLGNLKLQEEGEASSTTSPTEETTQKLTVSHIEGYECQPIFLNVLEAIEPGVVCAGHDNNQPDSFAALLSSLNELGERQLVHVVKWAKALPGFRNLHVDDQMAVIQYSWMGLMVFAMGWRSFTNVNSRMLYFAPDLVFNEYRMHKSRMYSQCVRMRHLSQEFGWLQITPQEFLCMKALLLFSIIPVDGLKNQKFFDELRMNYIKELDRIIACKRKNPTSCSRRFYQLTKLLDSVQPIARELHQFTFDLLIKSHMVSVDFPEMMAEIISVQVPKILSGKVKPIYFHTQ
Chain of CaMKIIγ(h) (Q13555 whole entry): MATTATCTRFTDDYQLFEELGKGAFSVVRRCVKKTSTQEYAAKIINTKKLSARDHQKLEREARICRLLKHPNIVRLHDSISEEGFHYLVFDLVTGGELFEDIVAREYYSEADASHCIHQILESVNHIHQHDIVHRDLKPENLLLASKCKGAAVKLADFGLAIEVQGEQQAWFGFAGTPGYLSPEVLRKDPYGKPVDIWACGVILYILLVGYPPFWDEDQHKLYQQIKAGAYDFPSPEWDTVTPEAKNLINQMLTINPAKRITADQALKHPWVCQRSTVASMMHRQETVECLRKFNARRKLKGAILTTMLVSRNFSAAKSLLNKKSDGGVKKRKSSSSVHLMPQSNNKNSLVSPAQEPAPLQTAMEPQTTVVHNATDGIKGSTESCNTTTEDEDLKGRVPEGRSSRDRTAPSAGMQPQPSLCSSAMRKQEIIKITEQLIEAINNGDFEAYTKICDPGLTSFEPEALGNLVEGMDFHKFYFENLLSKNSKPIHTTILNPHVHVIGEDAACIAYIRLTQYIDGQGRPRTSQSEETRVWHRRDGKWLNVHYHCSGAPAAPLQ
Chain of TGFBR2(h) (P37173 23-567): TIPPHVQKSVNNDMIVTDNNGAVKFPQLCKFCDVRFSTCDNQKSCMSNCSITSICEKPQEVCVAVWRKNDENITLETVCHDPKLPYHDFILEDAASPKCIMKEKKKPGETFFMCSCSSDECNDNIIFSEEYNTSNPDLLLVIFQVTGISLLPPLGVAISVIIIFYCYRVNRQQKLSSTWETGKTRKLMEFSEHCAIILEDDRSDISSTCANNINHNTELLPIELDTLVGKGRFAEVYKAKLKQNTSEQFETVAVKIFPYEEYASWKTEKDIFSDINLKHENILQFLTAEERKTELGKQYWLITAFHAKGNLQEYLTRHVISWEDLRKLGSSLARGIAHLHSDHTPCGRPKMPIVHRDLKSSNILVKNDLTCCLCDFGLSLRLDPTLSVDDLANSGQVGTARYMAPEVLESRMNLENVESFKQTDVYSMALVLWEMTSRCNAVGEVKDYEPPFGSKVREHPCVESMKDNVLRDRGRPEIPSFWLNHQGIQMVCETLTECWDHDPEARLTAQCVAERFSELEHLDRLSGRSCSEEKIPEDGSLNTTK
Chain of HIPK4(h) (Q8NE63 whole entry): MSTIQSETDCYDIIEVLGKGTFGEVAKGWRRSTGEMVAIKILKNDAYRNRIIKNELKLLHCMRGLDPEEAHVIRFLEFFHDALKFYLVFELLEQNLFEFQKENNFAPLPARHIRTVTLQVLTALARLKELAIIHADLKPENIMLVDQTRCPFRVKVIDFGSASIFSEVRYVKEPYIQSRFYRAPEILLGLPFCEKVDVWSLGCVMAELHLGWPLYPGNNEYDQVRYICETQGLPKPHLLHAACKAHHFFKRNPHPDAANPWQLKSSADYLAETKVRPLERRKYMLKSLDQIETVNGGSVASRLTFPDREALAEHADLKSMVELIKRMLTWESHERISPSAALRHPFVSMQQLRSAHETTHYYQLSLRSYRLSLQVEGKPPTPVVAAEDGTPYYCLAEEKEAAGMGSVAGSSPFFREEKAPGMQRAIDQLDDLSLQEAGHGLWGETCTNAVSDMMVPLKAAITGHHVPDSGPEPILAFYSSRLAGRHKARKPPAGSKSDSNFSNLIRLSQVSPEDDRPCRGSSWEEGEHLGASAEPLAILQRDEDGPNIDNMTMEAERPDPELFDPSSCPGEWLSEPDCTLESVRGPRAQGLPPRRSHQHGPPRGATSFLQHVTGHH
Chain of Adrenergic β2 (P07550 whole entry): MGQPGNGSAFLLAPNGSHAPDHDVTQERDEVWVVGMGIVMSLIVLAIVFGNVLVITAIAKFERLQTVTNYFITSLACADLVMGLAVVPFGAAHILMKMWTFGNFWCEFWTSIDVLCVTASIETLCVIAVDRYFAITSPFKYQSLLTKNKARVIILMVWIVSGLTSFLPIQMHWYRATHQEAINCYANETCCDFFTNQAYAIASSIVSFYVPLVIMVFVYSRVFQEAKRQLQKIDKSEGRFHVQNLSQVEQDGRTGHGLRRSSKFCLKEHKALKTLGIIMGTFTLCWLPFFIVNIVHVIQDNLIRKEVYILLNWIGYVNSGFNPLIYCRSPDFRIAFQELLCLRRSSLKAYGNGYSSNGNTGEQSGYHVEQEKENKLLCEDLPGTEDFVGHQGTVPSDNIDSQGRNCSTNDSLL
Chain of Lck(h) (P06239 whole entry): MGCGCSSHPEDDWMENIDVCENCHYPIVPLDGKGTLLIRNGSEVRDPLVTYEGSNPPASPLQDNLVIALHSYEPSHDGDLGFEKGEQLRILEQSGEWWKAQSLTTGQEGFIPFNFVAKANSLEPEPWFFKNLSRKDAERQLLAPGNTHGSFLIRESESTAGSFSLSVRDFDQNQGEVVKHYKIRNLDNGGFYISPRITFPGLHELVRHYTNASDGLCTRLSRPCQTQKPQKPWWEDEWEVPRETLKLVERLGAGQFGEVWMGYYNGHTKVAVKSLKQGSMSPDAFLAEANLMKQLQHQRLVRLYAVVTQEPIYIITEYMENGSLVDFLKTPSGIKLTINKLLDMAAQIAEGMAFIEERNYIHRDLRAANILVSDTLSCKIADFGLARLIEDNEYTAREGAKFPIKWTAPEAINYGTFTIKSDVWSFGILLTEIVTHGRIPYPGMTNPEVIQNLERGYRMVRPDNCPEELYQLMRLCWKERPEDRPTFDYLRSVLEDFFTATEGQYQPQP

COc1ccc(OC)c(NS(=O)(=O)c2ccc(NC(=O)CCSc3ccc(C)cc3)cc2)c1 [Compound A41]
Activity(%) (CaMKIδ(h)): 94% | % inh. [1]: -12% | Activity(%) (CDK14/cyclinY(h)): 89% | % inh. [2]: 48% | % Cytotox Cell Numbers (CHO; - S9, 1.3E-04 M): 64.6% | % Cytotox Index CBPI (CHO; - S9, 1.3E-04 M): 72.8% | % Micronucleated Cells (CHO; - S9, 1.3E-04 M): 13.39% | % Cytotox Cell Numbers (CHO; - S9, 1.6E-05 M): 26.4% | % Cytotox Index CBPI (CHO; - S9, 1.6E-05 M): -23.9% | % Micronucleated Cells (CHO; - S9, 1.6E-05 M): 2.04% | % Cytotox Cell Numbers (CHO; - S9, 2.5E-04 M): 73.6% | % Cytotox Index CBPI (CHO; - S9, 2.5E-04 M): 73.8% | % Micronucleated Cells (CHO; - S9, 2.5E-04 M): 14.40% | % Cytotox Cell Numbers (CHO; - S9, 3.1E-05 M): 42.0% | % Cytotox Index CBPI (CHO; - S9, 3.1E-05 M): 8.1% | % Micronucleated Cells (CHO; - S9, 3.1E-05 M): 3.12% | % Cytotox Cell Numbers (CHO; - S9, 6.3E-05 M): 52.5% | % Cytotox Index CBPI (CHO; - S9, 6.3E-05 M): 65.8% | % Micronucleated Cells (CHO; - S9, 6.3E-05 M): 6.96% | % Cytotox Cell Numbers (CHO; - S9, 7.8E-06 M): 14.3% | % Cytotox Index CBPI (CHO; - S9, 7.8E-06 M): -21.4% | % Micronucleated Cells (CHO; - S9, 7.8E-06 M): 1.13% | Activity(%) (HIPK4(h)): 105% | Activity(%) (PrKX(h)): 98% | Activity(%) (MYO3B(h)): 106% | % inh. [3]: 85% | Activity(%) (VRK1(h)): 103% | Activity(%) (TAK1(h)): 107% | Activity(%) (CaMKIIγ(h)): 92% | Activity(%) (ALK(h)): 82% | Activity(%) (MEKK3(h)): 109% | Activity(%) (ZAP-70(h)): 108% | Activity(%) (CDK7/cyclinH/MAT1(h)): 106% | % inh. (Cannabinoid CB2): 36% | Activity(%) [4]: 105% | Activity(%) (PKBβ(h)): 116% | % inh. (Androgen (Testosterone)): 10% | Activity(%) (Fes(h)): 116% | Activity(%) (Tie2(R849W)(h)): 101% | % inh. (Muscarinic M4): -1% | Activity(%) (TGFBR2(h)): 99% | Activity(%) (MAPKAP-K2(h)): 111% | % inh. (Adrenergic β2): 5% | Activity(%) (Src(T341M)(h)): 89% | Activity(%) (MRCKγ(h)): 97% | Activity(%) (Lck(h)): 74% | % inh. [5]: 52% | % inh. (Glutamate, NMDA, Glycine): 7% | Activity(%) (GRK5(h)): 101% | Activity(%) (CK1ε(h)): 108%
